In patent publication US12263172B2, “Toll-like receptor agonists for use in the treatment of hepatitis b” (priority 2019, dated 2025):

Columns and labels:
[1] = embryofetal development in rabbits; format: in vivo
Source text: (§1) Exposure increased more than dose-proportionally at low doses. Variability in exposure was high. • In vitro plasma protein binding was between 79.6% and 94.2% in animals and humans. Volume of distribution after intravenous dosing was high. […] Main metabolic pathways were oxygenation, hydrogenation, dehydrogenation, dealkylation, acetylation, glucuronidation, and/or glutathione conjugation. • In rats, >80% of drug-related material was found in feces, 11% to 20% in bile, and <4% in urine. […] There were no effects on embryofetal development up to 1 mg/kg/dose in rats and 30 mg/kg/dose in rabbits.

[2] = 14-week rat toxicity study; format: in vivo; conditions: 5 mg/kg biw
Source text: as §1

[3] = pharmacokinetics in monkey; conditions: in vivo, po
Source text: as §1

[4] = 6-month toxicity study in Cynomolgus monkeys; conditions: cynomolgus monkey, in vivo
Source text: as §1

human TLR7 = target: T1, human TLR7 (Homo sapiens, UniProt Q9NYK1); experiment: activation of human TLR7 (LEC); format: cell-based
T1 sequence (Q9NYK1 27-1049): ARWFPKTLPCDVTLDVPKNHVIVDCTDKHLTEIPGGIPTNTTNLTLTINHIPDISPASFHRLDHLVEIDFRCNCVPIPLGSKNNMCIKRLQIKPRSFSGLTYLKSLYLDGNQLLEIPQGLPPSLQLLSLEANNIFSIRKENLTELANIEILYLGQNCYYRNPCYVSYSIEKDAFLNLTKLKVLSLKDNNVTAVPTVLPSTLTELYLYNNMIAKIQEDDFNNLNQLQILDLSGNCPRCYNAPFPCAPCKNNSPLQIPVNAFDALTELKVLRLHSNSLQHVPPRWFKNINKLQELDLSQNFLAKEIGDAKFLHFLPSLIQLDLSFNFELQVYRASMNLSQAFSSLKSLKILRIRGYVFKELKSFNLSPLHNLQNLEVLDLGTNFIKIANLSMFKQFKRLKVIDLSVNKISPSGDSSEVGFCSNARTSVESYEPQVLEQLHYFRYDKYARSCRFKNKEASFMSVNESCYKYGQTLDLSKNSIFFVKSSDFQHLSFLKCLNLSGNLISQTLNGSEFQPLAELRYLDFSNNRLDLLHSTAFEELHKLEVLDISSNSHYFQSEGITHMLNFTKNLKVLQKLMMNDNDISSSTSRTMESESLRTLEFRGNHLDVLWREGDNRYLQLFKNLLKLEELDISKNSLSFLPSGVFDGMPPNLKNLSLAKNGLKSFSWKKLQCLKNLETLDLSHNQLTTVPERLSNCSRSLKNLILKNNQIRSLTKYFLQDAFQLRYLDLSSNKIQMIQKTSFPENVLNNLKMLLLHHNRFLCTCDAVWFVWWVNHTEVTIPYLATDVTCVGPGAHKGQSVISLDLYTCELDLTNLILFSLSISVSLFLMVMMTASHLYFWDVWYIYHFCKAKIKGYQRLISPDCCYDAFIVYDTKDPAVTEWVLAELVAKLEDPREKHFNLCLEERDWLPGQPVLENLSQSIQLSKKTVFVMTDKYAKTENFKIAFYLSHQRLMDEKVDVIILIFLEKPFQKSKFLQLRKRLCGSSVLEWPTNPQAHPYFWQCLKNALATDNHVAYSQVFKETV

CCCCOc1nc(N)c2[nH]cc(Cc3ccc(CN4CCCC4)cc3)c2n1 [Compound 4]
dose without effects on embryofetal development [1]: ≤ 30 mg/kg/dose
brain inflammation [2]: Brain inflammation occurred
bioavailability [3]: 1.5%
NOAEL at 6 months ([4]; q2w): 4.5 mg/kg
NOAEL at 6 months ([4]; qw): 3 mg/kg
AUC(0-t) ([4]; 3.0 mg/kg qw or 4.5 mg/kg q2w, read-out: AUC24h at NOAEL): 13.2 to 44.8 ng·h/mL
Cmax ([4]; 3.0 mg/kg qw or 4.5 mg/kg q2w, read-out: Cmax at NOAEL): 2.56 to 16.4 ng/mL
lowest effective concentration (LEC) for activation of human TLR7 (human TLR7): 70 nM
